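Grown in 96-well plates, cells were treated for 48 hours with each compound at five concentrations. Insufficient inhibition: endpoint recorded as highest concentration tested. GI50 = concentration required for 50% inhibition of growth. TGI: concentration producing complete growth inhibition.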
Assays:
Test in all cases: DTP human tumour cell line panel, 48 h
CAKI-1 renal = test system: CAKI-1 renal
BT-549 breast = test system: BT-549 breast
SK-MEL-5 melanoma = test system: SK-MEL-5 melanoma
T-47D breast = test system: T-47D breast
SK-OV-3 ovarian = test system: SK-OV-3 ovarian
RPMI-8226 leukemia = test system: RPMI-8226 leukemia
NCI-H460 lung = test system: NCI-H460 lung
NCI-H226 lung = test system: NCI-H226 lung
CCRF-CEM leukemia = test system: CCRF-CEM leukemia
NCI-H522 lung = test system: NCI-H522 lung
U251 CNS = test system: U251 CNS
OVCAR-8 ovarian = test system: OVCAR-8 ovarian
NCI/ADR-RES ovarian = test system: NCI/ADR-RES ovarian
UACC-257 melanoma = test system: UACC-257 melanoma
M14 melanoma = test system: M14 melanoma
SK-MEL-28 melanoma = test system: SK-MEL-28 melanoma
MDA-MB-435 = test system: MDA-MB-435
SF-295 CNS = test system: SF-295 CNS
LOX IMVI melanoma = test system: LOX IMVI melanoma
HCT-15 colon = test system: HCT-15 colon
HCC-2998 colon = test system: HCC-2998 colon
IGROV1 ovarian = test system: IGROV1 ovarian
EKVX NSCLC = test system: EKVX NSCLC
MDA-MB-231 breast = test system: MDA-MB-231 breast
RXF 393 renal = test system: RXF 393 renal
SW-620 colon = test system: SW-620 colon
HOP-92 NSCLC = test system: HOP-92 NSCLC
SNB-75 CNS = test system: SNB-75 CNS
TK-10 renal = test system: TK-10 renal
ACHN renal = test system: ACHN renal
HL-60(TB) leukemia = test system: HL-60(TB) leukemia
HS 578T breast = test system: HS 578T breast
SNB-19 CNS = test system: SNB-19 CNS
DU-145 prostate = test system: DU-145 prostate
A498 renal = test system: A498 renal
MALME-3M melanoma = test system: MALME-3M melanoma
SN12C renal = test system: SN12C renal
SK-MEL-2 melanoma = test system: SK-MEL-2 melanoma
786-0 renal = test system: 786-0 renal
SF-268 CNS = test system: SF-268 CNS
OVCAR-3 ovarian = test system: OVCAR-3 ovarian
MCF7 breast = test system: MCF7 breast
PC-3 prostate = test system: PC-3 prostate

For `Cc1ccc(NC(=O)c2cc(/C=C/C(=O)NO)cc(C(F)(F)F)c2)cc1Nc1nccc(-c2cccnc2)n1`, which GI50 (CAKI-1 renal) is on record?
The GI50 was 2.23 µM.

What about the TGI (CAKI-1 renal) of the same molecule?
The TGI was 5.14 µM.

What about the GI50 (BT-549 breast) of the same molecule?
The GI50 was 3.3 µM.

What about the TGI (BT-549 breast) of the same molecule?
The TGI was 8.5 µM.

And the GI50 (SK-MEL-5 melanoma)?
The GI50 was 1.57 µM.

What about the TGI (SK-MEL-5 melanoma) of the same molecule?
Its TGI is 3.01 µM.

What about the GI50 (T-47D breast) of the same molecule?
The GI50 was 1.41 µM.

What about the TGI (T-47D breast) of the same molecule?
Its TGI is 5.8 µM.

What about the GI50 (SK-OV-3 ovarian) of the same molecule?
Its GI50 is 1.83 µM.

What about the TGI (SK-OV-3 ovarian) of the same molecule?
Its TGI is 3.78 µM.

What about the GI50 (RPMI-8226 leukemia) of the same molecule?
The GI50 was 2.11 µM.

And the TGI (RPMI-8226 leukemia)?
Its TGI is 8.76 µM.

What about the GI50 (NCI-H460 lung) of the same molecule?
The GI50 was 2 µM.

And the TGI (NCI-H460 lung)?
Its TGI is 12.3 µM.

What about the GI50 (NCI-H226 lung) of the same molecule?
The GI50 was 1.78 µM.

What about the TGI (NCI-H226 lung) of the same molecule?
Its TGI is 5.09 µM.

And the GI50 (CCRF-CEM leukemia)?
The GI50 was 0.559 µM.

What about the TGI (CCRF-CEM leukemia) of the same molecule?
Its TGI is greater than 100 µM.

What about the GI50 (NCI-H522 lung) of the same molecule?
The GI50 was 1.35 µM.

What about the TGI (NCI-H522 lung) of the same molecule?
The TGI was 3.19 µM.

What about the GI50 (U251 CNS) of the same molecule?
The GI50 was 1.49 µM.

And the TGI (U251 CNS)?
Its TGI is 3.03 µM.

What about the GI50 (OVCAR-8 ovarian) of the same molecule?
The GI50 was 1.44 µM.

What about the TGI (OVCAR-8 ovarian) of the same molecule?
The TGI was 4.68 µM.

And the GI50 (NCI/ADR-RES ovarian)?
The GI50 was 44 µM.

And the TGI (NCI/ADR-RES ovarian)?
The TGI was greater than 100 µM.

What about the GI50 (UACC-257 melanoma) of the same molecule?
The GI50 was 1.32 µM.

And the TGI (UACC-257 melanoma)?
Its TGI is 2.8 µM.

And the GI50 (M14 melanoma)?
The GI50 was 1.34 µM.

What about the TGI (M14 melanoma) of the same molecule?
The TGI was 3.71 µM.

And the GI50 (SK-MEL-28 melanoma)?
Its GI50 is 1.56 µM.

And the TGI (SK-MEL-28 melanoma)?
Its TGI is 5.27 µM.

What about the GI50 (MDA-MB-435) of the same molecule?
Its GI50 is 1.53 µM.

And the TGI (MDA-MB-435)?
The TGI was 4.24 µM.

What about the GI50 (SF-295 CNS) of the same molecule?
The GI50 was 1.77 µM.

What about the TGI (SF-295 CNS) of the same molecule?
Its TGI is 3.43 µM.

What about the GI50 (LOX IMVI melanoma) of the same molecule?
The GI50 was 1.35 µM.

What about the TGI (LOX IMVI melanoma) of the same molecule?
The TGI was 3.02 µM.

What about the GI50 (HCT-15 colon) of the same molecule?
Its GI50 is 3.34 µM.

What about the TGI (HCT-15 colon) of the same molecule?
The TGI was greater than 100 µM.

And the GI50 (HCC-2998 colon)?
The GI50 was 1.76 µM.

What about the TGI (HCC-2998 colon) of the same molecule?
The TGI was 3.56 µM.

And the GI50 (IGROV1 ovarian)?
Its GI50 is 1.74 µM.

What about the TGI (IGROV1 ovarian) of the same molecule?
The TGI was 4.36 µM.

And the GI50 (EKVX NSCLC)?
Its GI50 is 3.48 µM.

And the TGI (EKVX NSCLC)?
The TGI was greater than 100 µM.

And the GI50 (MDA-MB-231 breast)?
Its GI50 is 1.14 µM.

And the TGI (MDA-MB-231 breast)?
The TGI was 4.51 µM.

And the GI50 (RXF 393 renal)?
Its GI50 is 1.66 µM.

What about the TGI (RXF 393 renal) of the same molecule?
Its TGI is 3.65 µM.

And the GI50 (SW-620 colon)?
The GI50 was 1.54 µM.

And the TGI (SW-620 colon)?
Its TGI is 5.66 µM.

What about the GI50 (HOP-92 NSCLC) of the same molecule?
Its GI50 is 0.58 µM.

And the TGI (HOP-92 NSCLC)?
The TGI was 2.71 µM.

And the GI50 (SNB-75 CNS)?
The GI50 was 2.66 µM.

What about the TGI (SNB-75 CNS) of the same molecule?
The TGI was 5.83 µM.

What about the GI50 (TK-10 renal) of the same molecule?
Its GI50 is 2.98 µM.

What about the TGI (TK-10 renal) of the same molecule?
The TGI was 6.91 µM.

And the GI50 (ACHN renal)?
The GI50 was 3.12 µM.

And the TGI (ACHN renal)?
The TGI was greater than 100 µM.

And the GI50 (HL-60(TB) leukemia)?
Its GI50 is 1.08 µM.

What about the TGI (HL-60(TB) leukemia) of the same molecule?
Its TGI is 3.73 µM.

And the GI50 (HS 578T breast)?
The GI50 was 1.83 µM.

What about the TGI (HS 578T breast) of the same molecule?
The TGI was 6.35 µM.

And the GI50 (SNB-19 CNS)?
Its GI50 is 2.7 µM.

And the TGI (SNB-19 CNS)?
The TGI was 7.62 µM.

And the GI50 (DU-145 prostate)?
Its GI50 is 2.04 µM.

And the TGI (DU-145 prostate)?
The TGI was 6.63 µM.

And the GI50 (A498 renal)?
The GI50 was 3.13 µM.

And the TGI (A498 renal)?
The TGI was 6.65 µM.

And the GI50 (MALME-3M melanoma)?
The GI50 was 0.58 µM.

What about the TGI (MALME-3M melanoma) of the same molecule?
The TGI was 3.24 µM.

And the GI50 (SN12C renal)?
Its GI50 is 2.54 µM.

And the TGI (SN12C renal)?
Its TGI is greater than 100 µM.

What about the GI50 (SK-MEL-2 melanoma) of the same molecule?
The GI50 was 1.09 µM.

What about the TGI (SK-MEL-2 melanoma) of the same molecule?
Its TGI is 3.32 µM.

What about the GI50 (786-0 renal) of the same molecule?
Its GI50 is 2.41 µM.

And the TGI (786-0 renal)?
Its TGI is 5.31 µM.

And the GI50 (SF-268 CNS)?
The GI50 was 2.35 µM.

What about the TGI (SF-268 CNS) of the same molecule?
The TGI was 5.7 µM.

What about the GI50 (OVCAR-3 ovarian) of the same molecule?
Its GI50 is 1.52 µM.

And the TGI (OVCAR-3 ovarian)?
The TGI was 4.21 µM.

What about the GI50 (MCF7 breast) of the same molecule?
The GI50 was 1.75 µM.

And the TGI (MCF7 breast)?
The TGI was 5.85 µM.

What about the GI50 (PC-3 prostate) of the same molecule?
The GI50 was 3.02 µM.

And the TGI (PC-3 prostate)?
Its TGI is greater than 100 µM.

From PubChem BioAssay (NCI)
